Data on 20 compounds can be found in patent US10501441B2, “Substituted imidazolylcarboxamides as pesticides” (BAYER CROPSCIENCE AKTIENGESELLSCHAFT, priority 2016, dated 2019).

Data set [1] can be described thus: log P by reversed-phase HPLC (C18), EEC directive 79/831 Annex V.A8, neutral range. The settings on record: pH 7.8; for chromatographic logP: reversed-phase HPLC column (C18), read-out: Logp [n]. It is filed as physicochemical. The protocol: a) The log P values reported in the tables and preparation examples above were determined in accordance with EEC directive 79/831 Annex V.A8 by HPLC (High Performance Liquid Chromatography) using a reversed-phase column (C18). Temperature 43° C. The calibration is effected with unbranched alkan-2-ones (having 3 to 16 carbon atoms), for which the log P values are known. […] The log P values for the acidic range (as log P [a]) and/or for the neutral range (as log P [n]) were stated in the tables and preparation examples above.

Data set [2] has as its system Myzus persicae. Briefly: Myzus persicae - oral test (MYZUPE O). It is filed as in vivo. The settings on record: for pest or weed control at 20 ppm / Emax at 0.8 ppm / Emax at 4 ppm: Myzus persicae, po, 120 h; for pest or weed control at 20 ppm / efficacy (aphids killed): after 5 days, 20 ppm; for pest or weed control at 20 ppm: read-out: efficacy (aphids killed); for Emax at 0.8 ppm / Emax at 4 ppm: MYZUPE O, 5 dat, read-out: % efficacy. As to the method:
Solvent: 100 parts by weight of acetone
50 μl of the active compound preparation are transferred into microtitre plates and made up to a final volume of 200 μl with 150 μl of IPL41 insect medium (33%+15% sugar). Subsequently, the plates are sealed with parafilm, which a mixed population of green peach aphids (Myzus persicae) within a second microtitre plate is able to puncture and imbibe the solution through it.
After 5 days, the efficacy in % is determined. 100% means that all the aphids have been killed; 0% means that no aphids have been killed.
Myzus persicae—Oral Test (MYZUPE O)
(§1) After the desired period of time (dat), the efficacy in % is determined. 100% means that all the aphids have been killed; 0% means that no aphids have been killed.

In data set [3] the test system is Myzus persicae. Briefly: Myzus persicae - spray test (MYZUPE). It is filed as in vivo. The conditions noted are these: for Emax at 100 g/ha / pest or weed control at 500 g/ha: Myzus persicae; for Emax at 100 g/ha: MYZUPE, 100 g of ai/ha, read-out: % efficacy; for pest or weed control at 500 g/ha: foliar, read-out: efficacy (aphids killed); for pest or weed control at 500 g/ha / efficacy (aphids killed): Chinese cabbage leaf discs, after 5-6 days, 500 g/ha. The protocol:
Myzus persicae—Spray Test
Solvents: 78 parts by weight of acetone • • 1.5 parts by weight of dimethylformamide
Emulsifier: alkylaryl polyglycol ether
After 5-6 days, the efficacy in % is determined. 100% means that all the aphids have been killed; 0% means that no aphids have been killed.
Myzus persicae—Spray Test (MYZUPE)
Solvents: 78.0 parts by weight of acetone • • 1.5 parts by weight of dimethylformamide
as §1

Setting [4] is: neutral range, HPLC C18, 43° C.

Like-named read-outs stand apart in the source and are kept apart here.

In the case of `CN(C(=O)c1cnc(Cl)n1C)c1cccnc1` [2-Chloro-N, 1-dimethyl-N-(pyridin-3-yl)-1H-imidazole-5-carboxamide], in data set [1] (setting [4]), the chromatographic logP came out at 0.88.

With `CN(C(=O)c1cnc(-n2cccc2)n1C)c1cccnc1` [I-1-001], the chromatographic logP in data set [1] (setting [4]) turned out to be 1.27. Also, in data set [2], the pest or weed control at 20 ppm stood at 100%, the Emax at 0.8 ppm was 100% and the Emax at 4 ppm is 100%. For the same compound, the Emax at 100 g/ha in data set [3] (144 h, 6 dat) was found to be 90%. Also, in data set [3], the pest or weed control at 500 g/ha was 90%.

For `CN(C(=O)c1cnc(-n2cccn2)n1C)c1cccnc1` [I-1-002], in data set [1] (setting [4]), the “Logp [n]” value was determined as 1.01. The “efficacy (aphids killed)” value stood at 100% in data set [2] and 90% in data set [3].

Consider `CN(C(=O)c1cnc(-n2ccc(C#N)n2)n1C)c1cccnc1` [I-1-003], for which the “Logp [n]” value in data set [1] (setting [4]) is reported as 1.31. In addition, the results for the “efficacy (aphids killed)” value in data set [2] and in data set [3] were 100% and 90%, respectively.

With `CN(C(=O)c1cnc(-n2ccc(Cl)n2)n1C)c1cccnc1` [I-1-004], the chromatographic logP in data set [1] (setting [4]) was 1.48. In data set [2], the pest or weed control at 20 ppm worked out at 100%, the Emax at 0.8 ppm stood at 100% and the Emax at 4 ppm came to 100%. Moreover, the Emax at 100 g/ha in data set [3] (144 h, 6 dat) is 90%. Further, in data set [3], the pest or weed control at 500 g/ha came out at 100%.

As for `CN(C(=O)c1cnc(-n2cc(Cl)cn2)n1C)c1cccnc1` [I-1-005], the “Logp [n]” value in data set [1] (setting [4]) is 1.49. For the same compound, the results for the “efficacy (aphids killed)” value in data set [2] and in data set [3] were 100% and 90%, respectively.

Consider `CN(C(=O)c1cnc(-n2cc(C(F)(F)F)cn2)n1C)c1cccnc1` [I-1-006], for which, in data set [1] (setting [4]), the chromatographic logP came to 1.82. Also, in data set [2], the pest or weed control at 20 ppm stood at 100% and the Emax at 0.8 ppm worked out at 100%. Also, the Emax at 100 g/ha in data set [3] (144 h, 6 dat) was 100%. Also, in data set [3], the pest or weed control at 500 g/ha was 100%.

For the compound `CN(C(=O)c1cnc(-n2ccc(C(F)(F)F)n2)n1C)c1cccnc1` [I-1-007, N,1-dimethyl-N-(pyridin-3-yl)-2-[3-(trifluoromethyl)-1H-pyrazol-1-yl]-1H-imidazole-5-carboxamide], the chromatographic logP in data set [1] (setting [4]) stood at 1.87. For the same compound, in data set [2], the pest or weed control at 20 ppm is 100%. Further, in data set [3], the pest or weed control at 500 g/ha was 100%.

On to `CN(C(=O)c1cnc(-n2cc(C#N)cn2)n1C)c1cccnc1` [I-1-008], for which the “Logp [n]” value in data set [1] (setting [4]) was 1.14. In addition, the “efficacy (aphids killed)” value in data set [2] and in data set [3] was 100% each time.

With `CN(C(=O)c1cnc(-n2cnc(C(F)(F)F)c2)n1C)c1cccnc1` [I-1-010], the chromatographic logP in data set [1] (setting [4]) was 1.38. In data set [2], the pest or weed control at 20 ppm turned out to be 100%, the Emax at 0.8 ppm was 100% and the Emax at 4 ppm was 100%. Moreover, the Emax at 100 g/ha in data set [3] (144 h, 6 dat) was determined as 70%. In addition, in data set [3], the pest or weed control at 500 g/ha is 100%.

With `COc1ncn(-c2ncc(C(=O)N(C)c3cccnc3)n2C)n1` [I-1-011], in data set [2], the Emax at 0.8 ppm was found to be 90% and the Emax at 4 ppm was 90%. In addition, the Emax at 100 g/ha in data set [3] (120 h, 5 dat) came out at 70%.

On to `CSc1ncn(-c2ncc(C(=O)N(C)c3cccnc3)n2C)n1` [I-1-011], for which, in data set [1] (setting [4]), the “Logp [n]” value stood at 1.27. Besides, the “efficacy (aphids killed)” value in data set [2] and in data set [3] was 100% in each case.

As to `Cc1cn(-c2ncc(C(=O)N(C)c3cccnc3)n2C)nc1C` [I-1-023], the “Logp [n]” value in data set [1] (setting [4]) amounted to 1.42.

For the compound `Cc1ccn(-c2ncc(C(=O)N(C)c3cccnc3)n2C)n1` [I-1-024], the “Logp [n]” value in data set [1] (setting [4]) is reported as 1.18.

Take `CN(C(=O)c1cnc(-n2ccnc2)n1C)c1cccnc1` [I-1-025]: the “Logp [n]” value in data set [1] is recorded as 0.56.

In the case of `CN(C(=O)c1cnc(-n2cnc(Cl)n2)n1C)c1cccnc1` [I-1-026], the “Logp [n]” value in data set [1] (setting [4]) was 1.17.

With `CN(C(=O)c1cnc(-n2cc3c(n2)CCC3)n1C)c1cccnc1` [I-1-027], in data set [1] (setting [4]), the “Logp [n]” value is 1.5.

On to `CN(C(=O)c1cnc(-n2ncc(C#N)c2N)n1C)c1cccnc1` [I-1-028], for which the “Logp [n]” value in data set [1] (setting [4]) is reported as 0.78.

For the compound `CCN(C(=O)c1cnc(-n2ccc(C#N)n2)n1C)c1cccnc1` [I-1-029], in data set [1] (setting [4]), the “Logp [n]” value turned out to be 1.53.

For the compound `CC(C)c1cnn(-c2ncc(C(=O)N(C)c3cccnc3)n2C)c1` [I-1-030], in data set [1] (setting [4]), the “Logp [n]” value came out at 1.84.
